# “And” between values parts separate entries of the source, which are not always exact repeats. Equal entries are not always repeated.
# Legend:
# [1] = test system: MCF7 cell line; experiment: CellTiter-Glo 2.0 cell viability, 7x7 combination dose response matrix, synergy scoring; format: cell-based
# [2] = test system: ABC-1 cell line; experiment: as above; format: cell-based
# [3] = test system: MDA-MB-157 cell line; experiment: as above; format: cell-based
# [4] = test system: EBC-1 cell line; experiment: as above; format: cell-based
# [5] = test system: CAL51 xenografts; experiment: CAL51 cell-derived xenograft (CDX) in vivo combination study; set-up: species or system SCID Beige mice; settings: compound 1-1 3 mg/kg; for antitumor effect vs vehicle (tumor volume): day 21, ANOVA with post hoc Tukey's test; for antitumor effect vs vehicle (tumor volume) / Δ TV ratio to vehicle group (A/C, B/C, (AB)/C): p.o. qd; for Δ TV ratio to vehicle group (A/C, B/C, (AB)/C): day 21, Clarke method; for Δ TV (delta tumor volume): p.o. qd for 21 days, average of four tumors
# Description: Compound 1-1 was formulated every day freshly as a solution in 5% DMSO/95% (30% w/v HPβCD in water). This formulation was also used as vehicle control. Everolimus was formulated as a suspension in 1% MC (400 cps), which was prepared every 3 days.
# Body weights were measured at the same time.
# Compound 1-1 was formulated every day freshly as a solution in 5% DMSO/95% (30% w/v HPβCD in water). This formulation was also used as vehicle control. Alpelisib was formulated as a solution in 20% captisol+80% water (pH adjusted to 4), which was prepared every week.
# [6] = MCF7, combined with Alpelisib 41-10000 nM, first compound 4.1-1000 nM
# [7] = MCF7, combined with Capivasertib 41-10000 nM, first compound 4.1-1000 nM
# [8] = MCF7, combined with Everolimus 41-10000 nM, first compound 4.1-1000 nM
# [9] = MCF7, combined with GNE-477 41-10000 nM, first compound 4.1-1000 nM
# [10] = MCF7, combined with KU-0063794 41-10000 nM, first compound 4.1-1000 nM
# [11] = MCF7, combined with M2698 41-10000 nM, first compound 4.1-1000 nM
# [12] = ABC-1, combined with GNE-477 21-10000 nM, first compound 1.05-500 nM
# [13] = ABC-1, combined with KU-0063794 21-10000 nM, first compound 1.05-500 nM
# [14] = ABC-1, combined with M2698 21-10000 nM, first compound 1.05-500 nM
# [15] = combined with Alpelisib 41-10000 nM, first compound 4.1-1000 nM
# [16] = combined with Capivasertib 41-10000 nM, first compound 4.1-1000 nM
# [17] = combined with Everolimus 41-10000 nM, first compound 4.1-1000 nM
# [18] = combined with GNE-477 41-10000 nM, first compound 4.1-1000 nM
# [19] = combined with KU-0063794 41-10000 nM, first compound 4.1-1000 nM
# [20] = combined with M2698 41-10000 nM, first compound 4.1-1000 nM
# [21] = EBC-1, combined with GNE-477 21-10000 nM, first compound 1.05-500 nM
# [22] = EBC-1, combined with KU-0063794 21-10000 nM, first compound 1.05-500 nM
# [23] = EBC-1, combined with M2698 21-10000 nM, first compound 1.05-500 nM
# [24] = MCF7, combined with Alpelisib 41-10000 nM, first compound 0.41-33.33 nM
# [25] = MCF7, combined with Capivasertib 41-10000 nM, first compound 0.41-100 nM
# [26] = MCF7, combined with Everolimus 41-10000 nM, first compound 0.41-100 nM
# [27] = MCF7, combined with GNE-477 41-10000 nM, first compound 0.41-100 nM
# [28] = MCF7, combined with HS173 41-10000 nM, first compound 0.41-100 nM
# [29] = MCF7, combined with KU-0063794 41-10000 nM, first compound 0.41-100 nM
# [30] = MCF7, combined with M2698 41-10000 nM, first compound 0.41-100 nM
# [31] = MCF7, combined with Serabelisib 41-10000 nM, first compound 0.41-100 nM
# [32] = ABC-1, combined with Alpelisib 21-10000 nM, first compound 0.21-100 nM
# [33] = ABC-1, combined with Capivasertib 21-10000 nM, first compound 0.21-100 nM
# [34] = ABC-1, combined with Everolimus 2.1-1000 nM, first compound 0.21-100 nM
# [35] = ABC-1, combined with GNE-477 21-10000 nM, first compound 0.21-100 nM
# [36] = ABC-1, combined with KU-0063794 21-10000 nM, first compound 0.21-100 nM
# [37] = ABC-1, combined with M2698 21-10000 nM, first compound 0.21-100 nM
# [38] = combined with Alpelisib 41-10000 nM, first compound 0.41-100 nM
# [39] = combined with Capivasertib 41-10000 nM, first compound 0.41-100 nM
# [40] = combined with Everolimus 41-10000 nM, first compound 0.41-100 nM
# [41] = combined with GNE-477 41-10000 nM, first compound 0.41-100 nM
# [42] = combined with KU-0063794 41-10000 nM, first compound 0.41-100 nM
# [43] = EBC-1, combined with Alpelisib 21-10000 nM, first compound 0.21-100 nM
# [44] = EBC-1, combined with Capivasertib 21-10000 nM, first compound 0.21-100 nM
# [45] = EBC-1, combined with Everolimus 2.1-1000 nM, first compound 0.21-100 nM
# [46] = EBC-1, combined with GNE-477 21-10000 nM, first compound 0.21-100 nM
# [47] = EBC-1, combined with KU-0063794 21-10000 nM, first compound 0.21-100 nM
# [48] = EBC-1, combined with M2698 21-10000 nM, first compound 0.21-100 nM
smiles,measurement,setting,value
"O=C1CCC(N2Cc3ccc(COC(=O)Nc4cc(OC(F)(F)F)ccc4F)cc3C2=O)C(=O)N1 (stereo not drawn) [Compound 1-1, [2-(2,6-dioxopiperidin-3-yl)-3-oxo-2,3-dihydro-1H-isoindol-5-yl]methyl N-[2-fluoro-5-(trifluoromethoxy)phenyl]carbamate]",Mean Bliss synergy score,[1]; [6],1.44
same,Mean Loewe synergy score,[1]; [6],6.88
same,Mean Bliss synergy score,[1]; [7],1.60
same,Mean Loewe synergy score,[1]; [7],11.02
same,Mean Bliss synergy score,[1]; [8],6.39
same,Mean Loewe synergy score,[1]; [8],17.49
same,Mean Bliss synergy score,[1]; [9],8.82
same,Mean Loewe synergy score,[1]; [9],12.53
same,Mean Bliss synergy score,[1]; [10],9.78
same,Mean Loewe synergy score,[1]; [10],14.51
same,Mean Bliss synergy score,[1]; [11],8.47
same,Mean Loewe synergy score,[1]; [11],15.52
same,Mean Bliss synergy score,[2]; [12],17.46
same,Mean Loewe synergy score,[2]; [12],13.06
same,Mean Bliss synergy score,[2]; [13],23.16
same,Mean Loewe synergy score,[2]; [13],12.88
same,Mean Bliss synergy score,[2]; [14],17.47
same,Mean Loewe synergy score,[2]; [14],14.22
same,Mean Bliss synergy score,[3]; [15],−2.43
same,Mean Loewe synergy score,[3]; [15],2.54
same,Mean Bliss synergy score,[3]; [16],3.83
same,Mean Loewe synergy score,[3]; [16],7.36
same,Mean Bliss synergy score,[3]; [17],1.61
same,Mean Loewe synergy score,[3]; [17],8.84
same,Mean Bliss synergy score,[3]; [18],1.72
same,Mean Loewe synergy score,[3]; [18],6.42
same,Mean Bliss synergy score,[3]; [19],2.25
same,Mean Loewe synergy score,[3]; [19],6.64
same,Mean Bliss synergy score,[3]; [20],4.89
same,Mean Loewe synergy score,[3]; [20],7.65
same,Mean Bliss synergy score,[4]; [21],12.03
same,Mean Loewe synergy score,[4]; [21],1.96
same,Mean Bliss synergy score,[4]; [22],13.27
same,Mean Loewe synergy score,[4]; [22],−6.72
same,Mean Bliss synergy score,[4]; [23],10.48
same,Mean Loewe synergy score,[4]; [23],8.11
same,Mean Bliss synergy score,"[4]; combined with GNE-477 (21 nM to 10 uM), EBC-1 cell line, mean across dose response matrix, 72 hrs",12.03
same,antitumor effect vs vehicle (tumor volume),[5]; alpelisib 20 mg/kg,neither alpelisib nor compound 1-1 produced a statistically significant antitumor effect
same,antitumor effect vs vehicle (tumor volume),[5]; everolimus 2 mg/kg,statistically significant antitumor effect
same,"Δ TV ratio to vehicle group (A/C, B/C, (AB)/C)",[5]; alpelisib 20 mg/kg,0.38
same,"Δ TV ratio to vehicle group (A/C, B/C, (AB)/C)",[5]; everolimus 2 mg/kg,0.38
same,Δ TV (delta tumor volume),"[5]; day 21, alpelisib 20 mg/kg, combination 20 + 3 mg/kg",215 mm3
same,Δ TV (delta tumor volume),"[5]; day 21, everolimus 2 mg/kg, combination 2 + 3 mg/kg",215 mm3
"Cc1ccc(NC(=O)OCc2ccc3c(c2)C(=O)N(C2CCC(=O)NC2=O)C3)cc1Cl (stereo not drawn) [Compound 1-6, [2-(2,6-dioxopiperidin-3-yl)-3-oxo-2,3-dihydro-1H-isoindol-5-yl]methyl N-(3-chloro-4-methylphenyl)carbamate]",Mean Bliss synergy score,[1]; [24],3.23
same,Mean Loewe synergy score,[1]; [24],9.38
same,Mean Loewe synergy score,"[1]; MCF7, combined with Alpelisib 41-10000 nM, first compound 0.41-100 nM",10.18 and 8.52
same,Mean Bliss synergy score,[1]; [25],14.01 and 11.86
same,Mean Loewe synergy score,[1]; [25],12.75 and 11.61
same,Mean Bliss synergy score,[1]; [26],10.05
same,Mean Loewe synergy score,[1]; [26],17.80
same,Mean Bliss synergy score,[1]; [27],0.14
same,Mean Loewe synergy score,[1]; [27],6.12
same,Mean Bliss synergy score,[1]; [28],0.74
same,Mean Loewe synergy score,[1]; [28],3.72
same,Mean Bliss synergy score,[1]; [29],5.02
same,Mean Loewe synergy score,[1]; [29],9.44
same,Mean Bliss synergy score,[1]; [30],2.92 and 3.60
same,Mean Loewe synergy score,[1]; [30],10.25 and 9.07
same,Mean Bliss synergy score,[1]; [31],4.69
same,Mean Loewe synergy score,[1]; [31],4.49
same,Mean Loewe synergy score,"[1]; combined with Capivasertib, MCF7 cell line (printed in Example 5, lung cancer cell lines), mean across dose response matrix, 72 hrs",16.02
same,Mean Loewe synergy score,"[1]; combined with KU-0063794 (41 nM to 10 uM), MCF7 cell line, mean across dose response matrix, 72 hrs",9.44
same,Mean Bliss synergy score,[2]; [32],20.25
same,Mean Loewe synergy score,[2]; [32],11.94
same,Mean Bliss synergy score,[2]; [33],33.20
same,Mean Loewe synergy score,[2]; [33],16.0
same,Mean Bliss synergy score,[2]; [34],26.31
same,Mean Loewe synergy score,[2]; [34],19.39
same,Mean Bliss synergy score,[2]; [35],20.34
same,Mean Loewe synergy score,[2]; [35],7.13
same,Mean Bliss synergy score,[2]; [36],19.44
same,Mean Loewe synergy score,[2]; [36],7.24
same,Mean Bliss synergy score,[2]; [37],17.02
same,Mean Loewe synergy score,[2]; [37],8.75
same,Mean Bliss synergy score,"[2]; combined with Everolimus (2.1 nM to 1 uM), ABC-1 cell line, mean across dose response matrix, 72 hrs",26.31
same,Mean Bliss synergy score,[3]; [38],1.84
same,Mean Loewe synergy score,[3]; [38],3.29
same,Mean Bliss synergy score,[3]; [39],6.73
same,Mean Loewe synergy score,[3]; [39],5.04
same,Mean Bliss synergy score,[3]; [40],4.15
same,Mean Loewe synergy score,[3]; [40],9.01
same,Mean Bliss synergy score,[3]; [41],0.86
same,Mean Loewe synergy score,[3]; [41],4.66
same,Mean Bliss synergy score,[3]; [42],1.22
same,Mean Loewe synergy score,[3]; [42],5.42
same,Mean Loewe synergy score,"[3]; combined with M2698 41-10000 nM, first compound 0.41-100 nM",5.62 and 4.44
same,Mean Bliss synergy score,[4]; [43],17.01
same,Mean Loewe synergy score,[4]; [43],3.84
same,Mean Bliss synergy score,[4]; [44],16.12
same,Mean Loewe synergy score,[4]; [44],6.11
same,Mean Bliss synergy score,[4]; [45],7.12
same,Mean Loewe synergy score,[4]; [45],8.08
same,Mean Bliss synergy score,[4]; [46],10.24
same,Mean Loewe synergy score,[4]; [46],2.07
same,Mean Bliss synergy score,[4]; [47],8.70
same,Mean Loewe synergy score,[4]; [47],4.67
same,Mean Bliss synergy score,[4]; [48],8.18
same,Mean Loewe synergy score,[4]; [48],8.00
same,Mean Loewe synergy score,"[4]; combined with Everolimus (2.1 nM to 1 uM), EBC-1 cell line, mean across dose response matrix, 72 hrs",8.08

# Source: US20260166045A1, “COMBINATION THERAPY COMPRISING GSPT1-DIRECTED MOLECULAR GLUE DEGRADERS AND PI3K/AKT/mTOR PATHWAY INHIBITORS” (Monte Rosa Therapeutics, Inc., priority 2022, published 2026)
